What was measured:
[1] = system: a wide variety of DNA and RNA viruses; experiment: All biological tests; type: cell-based; conditions: antiviral and cytostatic tests
[2] = Solubility in methanol or water; type: physicochemical; conditions: insufficient to measure the 13C NMR spectrum
[3] = system: feline herpes virus (FHV); type: cell-based; conditions: CRFK, read-out: EC50 against feline herpes virus

Row | Compound | solubility in methanol or water [2] | further results
1 | Cc1cc2ncn(Cc3cn(CCCP(=O)(O)O)nn3)c2cc1C [Compound 31j, 3-{4-[(5,6-Dimethyl-benzimidazol-1-yl)methyl]-1H-1,2,3-triazol-1-yl}propylphosphonic acid] | – | activity in all biological tests [1]: inactive
2 | Cn1c(=O)c2c(ncn2Cc2cn(CC(O)P(=O)(O)O)nn2)n(C)c1=O (stereo not shown) [Compound 33i, 3-{4-[(1,3-Dimethyl-2,6-dioxopurin-7-yl)methyl]-1H-1,2,3-triazol-1-yl}-1-hydroxyethyphosphonic acid] | insufficient | –
3 | CCOP(=O)(CCCn1cc(Cn2ccc(=O)n(C(=O)c3ccccc3)c2=O)nn1)OCC [Compound 22m, Diethyl 3-(4-{[3-benzoyl-2,4-dioxopyrimidin-1-yl]methyl}-1H-1,2,3-triazol-1-yl)propylphosphonate] | – | EC50 [3]: > 200 µM
4 | Cn1c(=O)c2c(nc(Cl)n2Cc2cn(CCCP(=O)(O)O)nn2)n(C)c1=O [Compound 31g, 3-{4-[(8-Chloro-1,3-dimethyl-2,6-dioxopurin-7-yl)methyl]-1H-1,2,3-triazol-1-yl}propylphosphonic acid] | insufficient | –
5 | 4-(4-{[6-Aminopurin-9-yl]methyl}-1H-1,2,3-triazol-1-yl)butylphosphonic acid [Compound 32b] | insufficient | –
6 | Nc1ncnc2c1ncn2Cc1cn(CCCCP(=O)(O)O)nn1 [Compound 32a, 4-(4-{[6-Aminopurin-9-yl]methyl}-1H-1,2,3-triazol-1-yl)butylphosphonic acid] | insufficient | –
7 | 3-(4-{[3-Benzoyl-2,4-dioxopyrimidin-1-yl]methyl}-1H-1,2,3-triazol-1-yl)propylphosphonic acid [Compound 31e] | – | activity in all biological tests [1]: inactive
